Measured values: patent US20260347372A1, “SMALL MOLECULE INHIBITORS OF KRAS G12D MUTANT” (MERCK SHARP & DOHME LLC, priority 2023, published 2026)
pIC50: −log10 of the molar value.

Experiments:
KRAS G12D = KRAS G12D (Homo sapiens, UniProt P01116, G12D); test: SOS-catalyzed nucleotide exchange assay, KRAS G12D (Procedure A); format: biochemical; conditions: guanine nucleotide exchange (GNE)
Description: (§1) Procedure for SOS-Catalyzed Nucleotide Exchange Assay for KRAS-WT, G12C/D/V, G13D, HRAS, and NRAS (Procedure A)
(§2) Recombinant KRAS-G12C protein used in this assay has an additional triple mutation (C51S/C80L/C118S). Whereas KRAS-WT, G12D/V, G13D, HRAS and NRAS are in context of their WT protein sequence background. Specifically, the SOS-catalyzed nucleotide exchange assay utilizes a preformed TR-FRET complex containing a specific biotinylated RAS protein (KRAS-WT, G12C/V/D, G13D, HRAS, NRAS; described above) with Bodipy-GDP, and Terbium-streptavidin. Compounds are preincubated with this complex for 60 minutes. Subsequently, recombinant human SOS protein and unlabeled GTP are added to initiate the exchange reaction. Small molecule inhibitors stabilize the Bodipy-GDP complex whereas the untreated protein rapidly exchanges Bodipy-GDP for unlabeled GTP resulting in reduced TR-FRET signal.
(§3) To assemble the preformed TR-FRET complexes, each biotinylated RAS protein is diluted to 2 μM in an EDTA Buffer (20 mM HEPES pH 7.5, 50 mM sodium chloride, 10 mM EDTA, and 0.01% Tween) and incubated at room temperature for one hour. This mixture is then further diluted to 90 nM in an Assay Buffer (20 mM HEPES pH 7.5, 150 mM sodium chloride, 10 mM magnesium chloride, and 0.005% Tween) containing 15 nM of Terbium-Streptavidin (Invitrogen, catalog #PV3577) and 900 nM of Bodipy-GDP (Invitrogen, catalog #G22360) and incubated at room temperature for six hours. It should be noted that this preformed TR-FRET complex for each of the RAS protein were made ahead of time, aliquoted and stored at −80° C. until the day of the experiment.
(§4) Each test compound (10 mM stock in DMSO) is diluted in DMSO to make a final-10-point, 3-fold dilution and is acoustically dispensed into a 384-well assay plate (Corning, catalog #3820) using an Echo 550 (Labcyte). Each well of the assay plate receives 3 μL of a specific 3×RAS preformed TR-FRET complex and 3 μL of Assay Buffer and is incubated at room temperature for 60 minutes (preincubation time). Each well then receives 3 μL of 3× recombinant human SOS protein and GTP (Sigma, G8877) in Assay Buffer and is incubated at room temperature for 30 minutes (G13D), 60 minutes (KRAS WT/G12C/D, H/NRAS) or 90 minutes for G12V. The final reaction in each well of 9 μL consists of 3 mM GTP, specific Ras and SOS proteins in the following concentrations: KRAS-G12C/SOS=3 nM/40 nM, KRAS-WT and G12D/SOS=1 nM/40 nM, KRAS-G12V/SOS=1.25 nM/160 nM, KRAS-G13D/SOS=1.25 nM/0 nM, HRAS and NRAS=1.25 nM/40 nM.
(§5) The time-resolved fluorescence resonance energy transfer (TR-FRET) signal is measured on an Envision (PerkinElmer) plate reader: Excitation filter=340 nm; emission1=495 nm; emission2=520 nm; dichroic mirror=D400/D505; delay time=[…]. The signal of each well is determined as the ratio of the emission at 520 nm to that at 495 nm. Percent effect of each well is determined after normalization to control wells containing DMSO (no effect) or a saturating concentration of inhibitor (max effect). The apparent effect as a function of compound concentration is fit to a four-parameter logistic equation.
(§6) For Example No. 14, nucleotide exchange assays for KRAS G12D, WT, G12C, and G12V were performed according to Procedure B. All the other compounds were tested according to Procedure A.

KRAS G12V = KRAS G12V (Homo sapiens, UniProt P01116, G12V); test: SOS-catalyzed nucleotide exchange assay, KRAS G12V (Procedure A); format: biochemical; conditions: GNE
Chain of KRAS G12V (P01116 with tags, fused parts or gaps isoform P01116-2 G12V): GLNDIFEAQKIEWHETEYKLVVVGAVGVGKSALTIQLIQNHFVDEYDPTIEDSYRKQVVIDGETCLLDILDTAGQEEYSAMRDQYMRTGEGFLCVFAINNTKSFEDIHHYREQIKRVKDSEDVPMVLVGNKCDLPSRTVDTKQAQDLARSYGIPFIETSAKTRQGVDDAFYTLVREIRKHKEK
Description: as §1, §2, §3, §4, §5, §6

AsPC-1 cells = target: T1, AsPC-1 cells (Homo sapiens, UniProt P01116, G12D); test: Cellular phospho-ERK assay, AsPC-1 cells (KRAS G12D); format: cell-based; conditions: 2 hours, read-out: AsPC1 pERK IC50
T1 construct: p-ERK/total ERK AlphaSureFire read-out
T1 sequence (P01116 1-188 isoform P01116-2 G12D): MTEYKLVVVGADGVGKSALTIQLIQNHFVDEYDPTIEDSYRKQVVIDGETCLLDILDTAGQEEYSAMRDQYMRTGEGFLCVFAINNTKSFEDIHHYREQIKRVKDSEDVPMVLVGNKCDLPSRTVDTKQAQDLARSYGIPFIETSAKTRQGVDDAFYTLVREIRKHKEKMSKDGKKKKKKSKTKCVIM
Method: Procedure for Cellular Phospho-ERK Assay in KRAS Wild Type and Mutant (G12D, G12V) Cell Lines
PANC08.13 cells (ATCC® CRL-2551™), containing homozygous KRAS-G12D activating mutation, were cultured in growth medium made of RPMI1640-GlutaMAX™-I (ThermoFisher Scientific 61870) containing 15% heat inactivated fetal bovine serum (ThermoFisher Scientific 10091148)). AsPC-1 cells (ATCC® CRL-1682™), containing homozygous KRAS-G12D activating mutation, were cultured in T150 flask in growth medium (RPMI medium 1640-GlutaMAX™-I (ThermoFisher Scientific 61870) containing 10% fetal bovine serum (ThermoFisher Scientific 10091148)).
Cells for the assay were harvested in growth medium after TrypLE (ThermoFisher scientific 12604021) digestion and were seeded in a 384-well collagen coated cell culture plate (Corning 356702) at a density of 10,000-15,000 cells/20 μL/well, and incubated at 37° C., 5% CO2 overnight. The compound (with 10 mM stock concentration) dose-response titrations were prepared [30 μM final ERK detection assay concentration and 1:3 dilutions, 10-point dose response] and appropriate amounts (270 nL) of test compounds were dispensed in a 384-well intermediate plate using an Echo 550 liquid handler. 30 μL/well of RPMI medium 1640-GlutaMAX™-I was added to the intermediate plate and the contents of the intermediate plate (10 μL/well) were then transferred to the 384-well collagen coated cell culture plate, which was incubated at 37° C., 5% CO2 for 2 hours. After removal of medium from the collagen coated cell culture plate, cells were lysed in lysis buffer from Alpha SureFire® Ultra™ Multiplex p-ERK and total ERK assay kit (PerkinElmer MPSU-PTERK) containing Halt™ Protease and Phosphatase inhibitor cocktail (ThermoFisher Scientific 78446) at room temperature with constant shaking at 300 rpm for 30 minutes. The cell lysates were then transferred to an OptiPlate-384 plate (PerkinElmer 6005620), and the phosphorylation of ERK (p-ERK) and total ERK levels were detected by Alpha SureFire® Ultra™ Multiplex p-EEK kit and total ERK assay kit (PerkinElmer MPSU-PTERK) following the manufacturer's protocol. Assay plates were read on a EnVision Multimode Plate Reader (PerkinElmer), and the ratio of p-ERK vs. total ERK in each well was used as the final readout. Dose response curves were analyzed using a 4-parameter logistic model to calculate IC50 values using Spotfire software.

KRAS WT = KRAS WT (Homo sapiens, UniProt P01116); test: SOS-catalyzed nucleotide exchange assay, KRAS WT (Procedure A); format: biochemical; conditions: GNE
Chain of KRAS WT (P01116 with tags, fused parts or gaps isoform P01116-2): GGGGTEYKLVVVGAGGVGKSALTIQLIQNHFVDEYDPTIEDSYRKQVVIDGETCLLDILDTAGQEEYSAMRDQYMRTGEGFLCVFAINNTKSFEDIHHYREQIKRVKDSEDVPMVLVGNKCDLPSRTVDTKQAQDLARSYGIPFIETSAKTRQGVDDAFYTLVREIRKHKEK
Description: as §1, §2, §3, §4, §5, §6

Chain of KRAS G12D (P01116 with tags, fused parts or gaps isoform P01116-2 G12D): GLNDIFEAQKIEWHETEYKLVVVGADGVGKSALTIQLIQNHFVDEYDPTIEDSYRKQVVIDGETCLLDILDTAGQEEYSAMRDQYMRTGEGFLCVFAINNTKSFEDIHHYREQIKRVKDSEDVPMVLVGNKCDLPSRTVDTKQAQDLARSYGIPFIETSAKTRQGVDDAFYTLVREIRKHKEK

| Compound | pIC50 (KRAS G12D) | pIC50 (KRAS G12V) | pIC50 (AsPC-1 cells) | pIC50 (KRAS WT) |
| --- | --- | --- | --- | --- |
| C#Cc1c(F)ccc2cc3[nH]ncc3c(-c3nccc4c3sc3nc(OC[C@]5(CO)CC5(F)F)nc(N5C[C@H]6CC[C@@H](C5)N6)c34)c12 [Ex-109, ((1R)-1-(((4-((1R,5S)-3,8-diazabicyclo[3.2.1]octan-3-yl)-8-(5-ethynyl-6-fluoro-1H-benzo[f]indazol-4-yl)pyrido[4′,3′:4,5]thieno[2,3-d]pyrimidin-2-yl)oxy)methyl)-2,2-difluorocyclopropyl)methanol] | 7.59 | < 4.96 | 6.00 | < 4.96 |
| C#Cc1c(F)ccc2cc3[nH]ncc3c(-c3nccc4c3sc3nc(OC[C@@]56CCCN5C[C@H](F)C6)nc(N5C[C@H]6CC[C@@H](C5)N6)c34)c12 [Ex-56] | 8.35 | 6.55 | 7.50 | 6.65 |
| Cc1cc2[nH]ncc2c(-c2nccc3c2sc2nc(OC[C@H]4C[C@H](C#N)C4)nc(N4C[C@H]5CC[C@@H](C4)N5)c23)c1C(F)(F)F [Ex-45, (1R,3r)-3-(((4-((1R,5S)-3,8-diazabicyclo[3.2.1]octan-3-yl)-8-(6-methyl-5-(trifluoromethyl)-1H-indazol-4-yl)pyrido[4′,3′:4,5]thieno[2,3-d]pyrimidin-2-yl)oxy)methyl)cyclobutane-1-carbonitrile] | 5.52 | – | 5.31 | – |
| Cc1cc2[nH]ncc2c(-c2nccc3c2sc2nc(OCC4CCCN(S(C)(=O)=O)C4)nc(N4C[C@H]5CC[C@@H](C4)N5)c23)c1C(F)(F)F (stereo partly drawn) [Ex-50, 4-((1R,5S)-3,8-diazabicyclo[3.2.1]octan-3-yl)-8-(6-methyl-5-(trifluoromethyl)-1H-indazol-4-yl)-2-((1-(methylsulfonyl)piperidin-3-yl)methoxy)pyrido[4′,3′:4,5]thi-eno[2,3-d]pyrimidine] | 5.62 | – | < 4.52 | – |
| Cc1cc2[nH]ncc2c(-c2nccc3c2sc2nc(OCCC4CCS(=O)(=O)CC4)nc(N4C[C@H]5CC[C@@H](C4)N5)c23)c1C(F)(F)F [Ex-41, 4-(2-((4-((1R,5S)-3,8-diazabicyclo[3.2.1]octan-3-yl)-8-(6-methyl-5-(trifluoromethyl)-1H-indazol-4-yl)pyrido[4′,3′:4,5]thieno[2,3-d]pyrimidin-2-yl)oxy)ethyl)tetrahydro-2H-thiopyran 1,1-dioxide] | 5.33 | – | < 4.52 | – |
| Cc1cc2[nH]ncc2c(-c2nccc3c2sc2nc(OCC4COC(C)(C)CO4)nc(N4C[C@H]5CC[C@@H](C4)N5)c23)c1C(F)(F)F (stereo partly drawn) [Ex-48, 4-((1R,5S)-3,8-diazabicyclo[3.2.1]octan-3-yl)-2-((5,5-dimethy1-1,4-dioxan-2-yl)methoxy)-8-(6-methy1-5-(trifluoromethyl)-1H-indazol-4-yl)pyrido[4′,3′:4,5]thieno[2,3-d]pyrimidine] | 5.48 | – | 4.83 | – |

The remaining lines, values ahead:

| pIC50 (KRAS G12D) | pIC50 (KRAS G12V) | pIC50 (AsPC-1 cells) | pIC50 (KRAS WT) | Compound |
| --- | --- | --- | --- | --- |
| 5.66 | – | 5.17 | – | Cc1cc2[nH]ncc2c(-c2nccc3c2sc2nc(OCC45COC(C4)C5)nc(N4C[C@H]5CC[C@@H](C4)N5)c23)c1C(F)(F)F [Ex-43, 2-((2-oxabicyclo[2.1.1]hexan-4-yl)methoxy)-4-((1R,5S)-3,8-diazabicyclo[3.2.1]octan-3-yl)-8-(6-methyl-5-(trifluoromethyl)-1H-indazol-4-yl)pyrido[4′,3′:4,5]thieno[2,3-d]pyrimidine] |
| 5.51 | – | 5.19 | – | CCOC1(COc2nc(N3C[C@H]4CC[C@@H](C3)N4)c3c(n2)sc2c(-c4c(C(F)(F)F)c(C)cc5[nH]ncc45)nccc23)CCOC1 (stereo partly drawn) [Ex-42, 4-((1R,5S)-3,8-diazabicyclo[3.2.1]octan-3-yl)-2-((3-ethoxytetrahydrofuran-3-yl)methoxy)-8-(6-methyl-5-(trifluoromethyl)-1H-indazol-4-yl)pyrido[4′,3′:4,5]thieno[2,3-d]pyrimidine] |
| 5.84 | – | 5.22 | – | Cc1cc2[nH]ncc2c(-c2nccc3c2sc2nc(OCC4(C#N)CCOC4)nc(N4C[C@H]5CC[C@@H](C4)N5)c23)c1C(F)(F)F (stereo partly drawn) [Ex-49, 3-(((4-((1R,5S)-3,8-diazabicyclo[3.2.1]octan-3-yl)-8-(6-methyl-5-(trifluoromethyl)-1H-indazol-4-yl)pyrido[4′,3′:4,5]thieno[2,3-d]pyrimidin-2-yl)oxy)methyl)tetrahydrofuran-3-carbonitrile] |
| 5.50 | – | 4.95 | – | Cc1cc2[nH]ncc2c(-c2nccc3c2sc2nc(OC[C@H]4CCCO4)nc(N4C[C@H]5CC[C@@H](C4)N5)c23)c1C(F)(F)F [Ex-47, 4-((1R,5S)-3,8-diazabicyclo[3.2.1]octan-3-yl)-8-(6-methyl-5-(trifluoromethyl)-1H-indazol-4-yl)-2-(((R)-tetrahydrofuran-2-yl)methoxy)pyrido[4′,3′:4,5]thi-eno[2,3-d]pyrimidine] |
| 5.58 | – | 5.33 | – | COC1(COc2nc(N3C[C@H]4CC[C@@H](C3)N4)c3c(n2)sc2c(-c4c(C(F)(F)F)c(C)cc5[nH]ncc45)nccc23)CCOC1 (stereo partly drawn) [Ex-44, 4-((1R,5S)-3,8-diazabicyclo[3.2.1]octan-3-yl)-2-((3-methoxytetrahydrofuran-3-yl)methoxy)-8-(6-methyl-5-(trifluoromethyl)-1H-indazol-4-yl)pyrido[4′,3′:4,5]thieno[2,3-d]pyrimidine] |
| 5.55 | – | 4.90 | – | Cc1cc2[nH]ncc2c(-c2nccc3c2sc2nc(OCC4(C)CCCO4)nc(N4C[C@H]5CC[C@@H](C4)N5)c23)c1C(F)(F)F (stereo partly drawn) [Ex-46, 4-((1R,5S)-3,8-diazabicyclo[3.2.1]octan-3-yl)-8-(6-methy1-5-(trifluoromethyl)-1H-indazol-4-yl)-2-((2-methyltetrahydrofuran-2-yl)methoxy)pyrido[4′,3′:4,5]thi-eno[2,3-d]pyrimidine] |
